Source: patent publication US20230148214A1, “INDAZOLES AND AZAINDAZOLES AS LRRK2 INHIBITORS” (ESCAPE Bio, Inc., priority 2020, published 2023)

Experiments:
LRRK2 WT = target: T1, LRRK2 WT (Homo sapiens, UniProt Q5S007); assay: LRRK2 Kinase Activity Assay (LanthaScreen TR-FRET), wild type; format: biochemical; conditions: recombinant wild type LRRK2, 25 μM ATP, 400 nM LRRKtide, 60 min; class symbols
T1 construct: purchased Life Technologies PR8604B
Summary of the method: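 IC50 fitted to the compound-dependent loss of TR-FRET signal. Each kinase form, wild type or G2019S, phosphorylated the fluorescein-tagged ERM-derived LRRKtide in the presence of ATP and compound dilutions over 60 min at room temperature; quench contained 10 mM EDTA and 2 nM anti-pERM antibody (final).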

LRRK2 G2019S = target: T2, LRRK2 G2019S (Homo sapiens, UniProt Q5S007, G2019S); assay: LRRK2 Kinase Activity Assay (LanthaScreen TR-FRET), G2019S; format: biochemical; conditions: recombinant G2019S-LRRK2, 25 μM ATP, 400 nM LRRKtide, 60 min; class symbols
T2 construct: purchased Life Technologies PV4881
T2 sequence (Q5S007 whole entry G2019S): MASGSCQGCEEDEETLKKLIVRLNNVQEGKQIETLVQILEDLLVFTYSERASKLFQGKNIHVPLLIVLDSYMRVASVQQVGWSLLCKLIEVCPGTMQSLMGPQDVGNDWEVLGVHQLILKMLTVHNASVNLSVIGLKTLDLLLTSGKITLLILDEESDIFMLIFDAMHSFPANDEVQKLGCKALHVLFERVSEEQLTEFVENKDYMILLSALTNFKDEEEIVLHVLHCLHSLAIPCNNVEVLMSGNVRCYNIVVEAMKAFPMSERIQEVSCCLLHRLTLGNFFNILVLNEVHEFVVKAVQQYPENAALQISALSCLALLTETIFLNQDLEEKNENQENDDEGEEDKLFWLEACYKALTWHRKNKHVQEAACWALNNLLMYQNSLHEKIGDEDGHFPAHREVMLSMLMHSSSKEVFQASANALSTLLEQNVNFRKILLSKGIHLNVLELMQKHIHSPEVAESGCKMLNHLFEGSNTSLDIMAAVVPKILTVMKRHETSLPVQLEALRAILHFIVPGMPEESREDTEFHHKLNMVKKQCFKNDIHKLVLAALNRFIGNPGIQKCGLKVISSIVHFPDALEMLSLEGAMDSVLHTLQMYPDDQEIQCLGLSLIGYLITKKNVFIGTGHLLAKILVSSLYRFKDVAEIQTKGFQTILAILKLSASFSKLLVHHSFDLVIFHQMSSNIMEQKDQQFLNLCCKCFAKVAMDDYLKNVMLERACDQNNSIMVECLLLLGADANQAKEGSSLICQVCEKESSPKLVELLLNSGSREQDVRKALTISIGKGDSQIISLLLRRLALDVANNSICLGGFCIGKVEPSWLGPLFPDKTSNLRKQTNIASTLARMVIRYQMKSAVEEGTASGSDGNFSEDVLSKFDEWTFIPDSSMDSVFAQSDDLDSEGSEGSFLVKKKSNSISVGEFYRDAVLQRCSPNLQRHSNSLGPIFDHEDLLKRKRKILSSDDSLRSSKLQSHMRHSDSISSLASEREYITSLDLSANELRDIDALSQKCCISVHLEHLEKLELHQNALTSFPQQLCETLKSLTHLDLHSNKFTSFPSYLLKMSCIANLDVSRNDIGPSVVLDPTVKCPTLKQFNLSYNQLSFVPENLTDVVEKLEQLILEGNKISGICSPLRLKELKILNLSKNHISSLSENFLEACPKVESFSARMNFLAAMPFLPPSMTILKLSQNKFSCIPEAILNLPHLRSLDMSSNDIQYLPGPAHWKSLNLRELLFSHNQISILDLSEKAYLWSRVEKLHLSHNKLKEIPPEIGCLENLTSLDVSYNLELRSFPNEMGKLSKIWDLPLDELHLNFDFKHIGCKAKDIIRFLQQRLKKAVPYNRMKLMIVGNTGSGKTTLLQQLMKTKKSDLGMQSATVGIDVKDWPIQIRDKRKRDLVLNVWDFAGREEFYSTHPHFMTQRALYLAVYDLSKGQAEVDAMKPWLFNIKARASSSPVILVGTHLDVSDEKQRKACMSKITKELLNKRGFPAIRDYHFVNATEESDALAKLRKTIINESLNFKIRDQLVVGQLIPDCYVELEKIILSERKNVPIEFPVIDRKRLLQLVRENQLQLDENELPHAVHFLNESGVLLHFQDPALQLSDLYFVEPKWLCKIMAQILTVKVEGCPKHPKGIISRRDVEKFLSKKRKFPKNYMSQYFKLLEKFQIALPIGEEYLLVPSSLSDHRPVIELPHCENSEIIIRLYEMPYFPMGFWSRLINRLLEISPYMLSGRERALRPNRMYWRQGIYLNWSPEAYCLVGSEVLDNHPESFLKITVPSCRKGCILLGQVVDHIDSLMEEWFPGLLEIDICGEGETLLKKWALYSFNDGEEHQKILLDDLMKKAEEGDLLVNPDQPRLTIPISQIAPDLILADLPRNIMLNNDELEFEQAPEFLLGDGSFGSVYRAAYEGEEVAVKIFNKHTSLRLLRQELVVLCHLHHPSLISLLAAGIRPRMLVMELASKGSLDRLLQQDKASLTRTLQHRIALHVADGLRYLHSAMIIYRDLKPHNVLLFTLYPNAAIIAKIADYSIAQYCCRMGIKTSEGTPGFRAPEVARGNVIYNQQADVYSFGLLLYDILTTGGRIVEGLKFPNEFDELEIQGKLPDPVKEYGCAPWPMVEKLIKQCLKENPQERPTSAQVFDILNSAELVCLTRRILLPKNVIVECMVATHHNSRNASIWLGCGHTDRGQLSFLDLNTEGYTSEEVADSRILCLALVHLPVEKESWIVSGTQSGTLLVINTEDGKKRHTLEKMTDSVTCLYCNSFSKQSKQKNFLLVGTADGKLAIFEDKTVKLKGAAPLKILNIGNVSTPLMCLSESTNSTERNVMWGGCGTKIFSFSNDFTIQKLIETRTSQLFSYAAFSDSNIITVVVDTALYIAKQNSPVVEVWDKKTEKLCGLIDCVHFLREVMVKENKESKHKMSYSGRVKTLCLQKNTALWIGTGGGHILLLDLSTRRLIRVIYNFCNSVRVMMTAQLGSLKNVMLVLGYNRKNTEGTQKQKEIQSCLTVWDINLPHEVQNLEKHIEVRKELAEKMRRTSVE
Method: LRRK2 kinase activity was measured using a LanthaScreen™ Kinase Activity Assay from ThermoFisher Scientific. Recombinant wild type or G2019S-LRRK2 protein (Life Technologies, PR8604B or PV4881, respectively), was incubated with a fluorescein-labeled peptide substrate called LRRKtide that is based upon ezrin/radixin/moesin (ERM) (Life Technologies, PV4901) in the presence of ATP and serially diluted compound. […] Compound-dependent inhibition of the TR-FRET signal was used to generate a concentration-response curve for IC50 determination.
After 60 min incubation at room temperature, the reaction was stopped by addition of 10 μL of 2×stop solution containing a final concentration of 2 nM anti-pERM antibody and 10 mM EDTA.

T1 sequence (Q5S007 whole entry): as the sequence (Q5S007 whole entry G2019S) above, with S2019G counted along it

Compound | IC50 (LRRK2 WT) | IC50 (LRRK2 G2019S)
N#Cc1ccc2c(c1)CCC2Oc1ccc2[nH]nc(-c3cnco3)c2c1 (single isomer, unassigned) [Example 3, enantiomer 1, 1-((3-(Oxazol-5-yl)-1H-indazol-5-yl)oxy)-2,3-dihydro-1H-indene-5-carbonitrile] | < 100 nM | < 100 nM
N#Cc1ccc2c(c1)CC[C@@H]2Oc1ccc2[nH]nc(-c3cnn(C(F)F)c3)c2c1 (single isomer, unassigned) [Example 4, enantiomer 1, 1-((3-(1-(Difluoromethyl)-1H-pyrazol-4-yl)-1H-indazol-5-yl)oxy)-2,3-dihydro-1H-indene-5-carbonitrile] | 100 to 1000 nM | < 100 nM
N#Cc1ccc2c(c1)CC[C@@H]2Oc1ccc2[nH]nc(-c3cnoc3)c2c1 (single isomer, unassigned) [Example 5, enantiomer 1, 1-((3-(Isoxazol-4-yl)-1H-indazol-5-yl)oxy)-2,3-dihydro-1H-indene-5-carbonitrile] | < 100 nM | < 100 nM
N#Cc1ccc2c(c1)CCC[C@@H]2Nc1ccc2[nH]nc(-c3cnoc3)c2c1 (single isomer, unassigned) [Example 6, enantiomer 1, 5-((3-(Isoxazol-4-yl)-1H-indazol-5-yl)amino)-5,6,7,8-tetrahydronaphthalene-2-carbonitrile] | < 100 nM | < 100 nM
N#Cc1ccc2c(c1)CCC[C@@H]2Nc1ccc2[nH]nc(-c3cnoc3)c2c1 (single isomer, unassigned) [Example 6, enantiomer 2, 5-((3-(Isoxazol-4-yl)-1H-indazol-5-yl)amino)-5,6,7,8-tetrahydronaphthalene-2-carbonitrile] | 100 to 1000 nM | < 100 nM
N#Cc1cnc2c(c1)CCC[C@@H]2Nc1ccc2[nH]nc(-c3cnoc3)c2c1 (single isomer, unassigned) [Example 7, enantiomer 1, 8-((3-(Isoxazol-4-yl)-1H-indazol-5-yl)amino)-5,6,7,8-tetrahydroquinoline-3-carbonitrile] | 1000 to 10000 nM | 100 to 1000 nM
N#Cc1cnc2c(c1)CCC[C@@H]2Nc1ccc2[nH]nc(-c3cnoc3)c2c1 (single isomer, unassigned) [Example 7, enantiomer 2, 8-((3-(Isoxazol-4-yl)-1H-indazol-5-yl)amino)-5,6,7,8-tetrahydroquinoline-3-carbonitrile] | < 100 nM | < 100 nM
N#Cc1ccc2c(c1)CC[C@@H]2Nc1ccc2[nH]nc(-c3cnoc3)c2c1 (single isomer, unassigned) [Example 8, enantiomer 1, 1-((3-(Isoxazol-4-yl)-1H-indazol-5-yl)amino)-2,3-dihydro-1H-indene-5-carbonitrile] | < 100 nM | < 100 nM
N#Cc1ccc2c(c1)CC[C@@H]2Nc1ccc2[nH]nc(-c3cnco3)c2c1 (single isomer, unassigned) [Example 9, enantiomer 1, 1-((3-(Oxazol-5-yl)-1H-indazol-5-yl)amino)-2,3-dihydro-1H-indene-5-carbonitrile] | < 100 nM | < 100 nM
N#Cc1ccc2c(c1)CC[C@@H]2Nc1ccc2[nH]nc(-c3ccoc3)c2c1 (single isomer, unassigned) [Example 11, enantiomer 1, 1-((3-(Furan-3-yl)-1H-indazol-5-yl)amino)-2,3-dihydro-1H-indene-5-carbonitrile] | 100 to 1000 nM | < 100 nM
N#Cc1ccc2c(c1)CC[C@@H]2Nc1ccc2[nH]nc(-c3cnn(C(F)F)c3)c2c1 (single isomer, unassigned) [Example 12, enantiomer 1, 1-((3-(1-(Difluoromethyl)-1H-pyrazol-4-yl)-1H-indazol-5-yl)amino)-2,3-dihydro-1H-indene-5-carbonitrile] | < 100 nM | < 100 nM
Cc1cc(C#N)cc2c1[C@@H](Oc1ccc3[nH]nc(-c4cnco4)c3c1)CC2 (single isomer, unassigned) [Example 14, enantiomer 1, 7-Methyl-1-((3-(oxazol-5-yl)-1H-indazol-5-yl)oxy)-2,3-dihydro-1H-indene-5-carbonitrile] | < 100 nM | < 100 nM
N#Cc1ccc2c(c1)CCC[C@@H]2Nc1ccc2[nH]nc(I)c2c1 (single isomer, unassigned) [Example 15, enantiomer 1, 5-((3-Iodo-1H-indazol-5-yl)amino)-5,6,7,8-tetrahydronaphthalene-2-carbonitrile] | 100 to 1000 nM | < 100 nM
N#Cc1ccc2c(c1)CCC[C@@H]2Nc1ccc2[nH]nc(I)c2c1 (single isomer, unassigned) [Example 15, enantiomer 2, 5-((3-Iodo-1H-indazol-5-yl)amino)-5,6,7,8-tetrahydronaphthalene-2-carbonitrile] | 1000 to 10000 nM | 100 to 1000 nM
N#Cc1cnc2c(c1)CCC[C@@H]2Oc1ccc2[nH]nc(-c3cnco3)c2c1 (single isomer, unassigned) [Example 16, enantiomer 1, 8-((3-(Oxazol-5-yl)-1H-indazol-5-yl)oxy)-5,6,7,8-tetrahydroquinoline-3-carbonitrile] | < 100 nM | < 100 nM
N#Cc1ccc2c(c1)CCC[C@@H]2Oc1ccc2[nH]nc(-c3cnoc3)c2c1 (single isomer, unassigned) [Example 17, enantiomer 1, 5-((3-(Isoxazol-4-yl)-1H-indazol-5-yl)oxy)-5,6,7,8-tetrahydronaphthalene-2-carbonitrile] | < 100 nM | < 100 nM
N#Cc1ccc2c(c1)CCC[C@@H]2Oc1ccc2[nH]nc(-c3cnoc3)c2c1 (single isomer, unassigned) [Example 17, enantiomer 2, 5-((3-(Isoxazol-4-yl)-1H-indazol-5-yl)oxy)-5,6,7,8-tetrahydronaphthalene-2-carbonitrile] | 100 to 1000 nM | < 100 nM
N#Cc1ccc2c(c1)CCC[C@@H]2Oc1ccc2[nH]nc(-c3cnco3)c2c1 (single isomer, unassigned) [Example 18, enantiomer 1, 5-((3-(Oxazol-5-yl)-1H-indazol-5-yl)oxy)-5,6,7,8-tetrahydronaphthalene-2-carbonitrile] | < 100 nM | < 100 nM
Cc1n[nH]c2ccc(O[C@H]3CCCc4cc(C#N)ccc43)cc12 (single isomer, unassigned) [Example 19, enantiomer 1, 5-((3-Methyl-1H-indazol-5-yl)oxy)-5,6,7,8-tetrahydronaphthalene-2-carbonitrile] | 100 to 1000 nM | 100 to 1000 nM
Cc1n[nH]c2ccc(O[C@H]3CCCc4cc(C#N)ccc43)cc12 (single isomer, unassigned) [Example 19, enantiomer 2, 5-((3-Methyl-1H-indazol-5-yl)oxy)-5,6,7,8-tetrahydronaphthalene-2-carbonitrile] | 100 to 1000 nM | < 100 nM
N#Cc1ccc2c(c1)CC[C@@H]2Oc1cc2c(-c3cnco3)n[nH]c2cn1 (single isomer, unassigned) [Example 20, enantiomer 1, 1-((3-(Oxazol-5-yl)-1H-pyrazolo[3,4-c]pyridin-5-yl)oxy)-2,3-dihydro-1H-indene-5-carbonitrile] | < 100 nM | < 100 nM
N#Cc1ccc2c(c1)CC[C@@H]2Oc1cc2c(-c3cnco3)n[nH]c2cn1 (single isomer, unassigned) [Example 20, enantiomer 2, 1-((3-(Oxazol-5-yl)-1H-pyrazolo[3,4-c]pyridin-5-yl)oxy)-2,3-dihydro-1H-indene-5-carbonitrile] | 100 to 1000 nM | < 100 nM
N#Cc1ccc2c(c1)CC[C@@H]2Nc1cc2c(-c3cnco3)n[nH]c2cn1 (single isomer, unassigned) [Example 21, enantiomer 1, 1-((3-(Oxazol-5-yl)-1H-pyrazolo[3,4-c]pyridin-5-yl)amino)-2,3-dihydro-1H-indene-5-carbonitrile] | < 100 nM | < 100 nM
N#Cc1ccc2c(c1)CC[C@@H]2Nc1cc2c(-c3cnco3)n[nH]c2cn1 (single isomer, unassigned) [Example 21, enantiomer 2, 1-((3-(Oxazol-5-yl)-1H-pyrazolo[3,4-c]pyridin-5-yl)amino)-2,3-dihydro-1H-indene-5-carbonitrile] | 100 to 1000 nM | < 100 nM
Cc1c(C#N)ccc2c1CC[C@@H]2Oc1ccc2[nH]nc(-c3cnco3)c2c1 (single isomer, unassigned) [Example 22, enantiomer 1, 4-Methyl-1-((3-(oxazol-5-yl)-1H-indazol-5-yl)oxy)-2,3-dihydro-1H-indene-5-carbonitrile] | < 100 nM | < 100 nM
N#Cc1cc2c(cc1F)[C@@H](Oc1ccc3[nH]nc(-c4cnco4)c3c1)CC2 (single isomer, unassigned) [Example 23, enantiomer 1, 6-Fluoro-1-((3-(oxazol-5-yl)-1H-indazol-5-yl)oxy)-2,3-dihydro-1H-indene-5-carbonitrile] | < 100 nM | < 100 nM
N#Cc1ccc2c(c1F)CC[C@@H]2Oc1ccc2[nH]nc(-c3cnco3)c2c1 (single isomer, unassigned) [Example 24, enantiomer 1, 4-Fluoro-1-((3-(oxazol-5-yl)-1H-indazol-5-yl)oxy)-2,3-dihydro-1H-indene-5-carbonitrile] | < 100 nM | < 100 nM
